# Results published in article PMC7287882, “Dual miRNases for Triple Incision of miRNA Target: Design Concept and Catalytic Performance” (Molecules, 2020).
# Assays:
# [1] = system: miR-17; assay: Ribonuclease activity assay with DC or ON and RNase H, miR-17; format: biochemical; conditions: for total extent of miRNA cleavage in the presence of RNase H: miRNA 1 µM, DC or ON 20 µM, buffer (2) pH 7.8, 37 °C, at plateau, by 2 h
# Description: It is known that DNA-like antisense oligonucleotides after binding to target RNAs form a substrate for intracellular endonuclease RNases H. RNA hydrolysis in RNA-DNA heteroduplex by RNase H1 occurs at a distance of 6–10 nucleotides from the 5′-end of RNA (approximately one turn of the helix). Our design of the Dual conjugates here was carried out in such a way to ensure that their heteroduplexes with the matching miRNA sequences could serve as potential substrates for RNase H. To achieve that, we ensured that the length of the oligonucleotide recognition motifs A and B within the DC was 8–10 nt, which was expected to be sufficient for interaction and cleavage by RNase H (see Figure 1 and Table 1). As indicated above, a few adenine aromatic basis within each recognition motifs A and B were replaced with 2-aminoadenines to enhance the hybridization ability of the DC with miRNA. […] In order to verify this, as well as to evaluate the ability of RNase H to contribute to the miRNA cleavage catalyzed by DC, we studied the kinetics of the target miRNA cleavage performed (1) by the DC alone; (2) by RNase H, when the target miRNA was hybridized with the nonconjugated Dual oligonucleotide (ON); and (3) by both DC and RNase H present in the same reaction mixture. The study was performed against miR-17, miR-155 and miR-21 using a 20-fold excess of DCs or respective oligonucleotides over the matching miRNA (see Table 1 for sequences).
# Figure 6 Cleavage kinetics of 5′-[^32P]-labeled miRNAs by DCs and/or RNase H. (a,d,g). Radioautographs of 18% denaturing PAAG showing the profiles of cleavage of miR-17, miR-155 and miR-21, respectively. Duplexes formed by 5′-[^32P]-miRNA (1 µM) and DC or ON (20 µM) were incubated at 37 °C for 48–72 h. RNase H was taken in the concentration of 5 or 100 u/mL. Lanes Im and T1–imidazole ladder and partial RNA digestion with RNase T1, respectively; control–RNA was incubated in the absence of DC or ON and in the presence of RNase H (100 u/mL); (b,e,h) Time dependency of cleavage of miR-17, miR-155 and miR-21, respectively, by DCs and/or RNase H. Data are presented as mean ± s.e. *—indicates statistically significant difference with p < 0.05; (c,f,i). Positions of miR-17, miR-155 and miR-21 cleavage, respectively, induced by RNase H in duplex with ON (red arrows), and by combination of DC (black arrows) and RNase H. A–2-aminoadenine.
# The reaction mixture (10 µL) containing 20 mM Tris-HCl, pH 7.8, 40 mM KCl, 8 mM MgCl2, 1 mM DTT, 0.02 mg/mL BSA, 800 cpm (Cherenkov’s counting) of [^32P]-miRNA, 1 µM unlabeled miRNA, 20 µM either DC or Dual oligonucleotide was incubated at 37 °C for 20 min then RNase H (5 or 100 U/mL) was added and the mixture was further incubated for 48 h. Aliquots were taken at 0, 1, 6, 24 and 48 h then the reaction was quenched, RNA cleavage products were collected and analyzed as described above.
# [2] = format: in vitro ADME, bovine; conditions: serum
# Description: Stability of miRNA-21-DC and miRNA-155-DC and corresponding ONs was carried out in reaction mixtures (90 µL) containing DCs or ONs at a concentration of 0.1 mg/mL in Dulbecco’s Modified Eagle Medium (DMEM) with 10% FBS at 37 °C for 24 h. Aliquots (10 μL) were taken after 0, 0.5, 1, 2, 4, 8, and 24 h of incubation. The reaction was stopped by adding 10 μL of 8 M urea, and the reaction mixture was immediately frozen in liquid nitrogen. DCs and ONs cleavage products were analyzed in 12% PAAG/8M urea. To identified products, gels were stained with the Stains-All dye and photographed using a gel documentation system.
# Figure S12. Stability of Dual conju gat es (DCs) and corresponding Du al oligonucleotides (ONs)
# targeted to miR-155 and miR-21 in cell medium DMEM supplemented with 10% FBS . Im a g e s
# of the 12% PAAG/8M urea, stained with Stains-Alland kinetics of degradation of DCs and ONs .
# Conjugates and oligonucleotides at a concentration of 0. 1 mg/mL were incubated in DMEM
# supplemented with 10% FBS at 37 °C for 24 h.
# (1 picture or pasted object on this page, not shown here)
# [3] = system: miR-18a; assay: Ribonuclease activity assay at different concentrations of MgCl2; format: biochemical; conditions: 50 mM Tris-HCl pH 7.0, 100 mM KCl, 1 mM DTT, 0.02 mg/mL BSA, 37 °C, 48 h; for Cleavage: miRNA 1 µM, DC 20 µM, mean ± s.e.
# Description: In order to understand the effect of Mg^2+ ions on the efficiency and specificity of miRNA cleavage by DCs, miR-18a was incubated with the matching DC in the buffer containing 50 mM Tris-HCl, pH 7.0, 100 mM KCl, 1 mM DTT, 0.02 mg/mL BSA, but with different Mg^2+ concentration varied from 0 to 15 mM.
# Reaction with different concentration of MgCl2 was performed in reaction mixtures (8 µL) containing 320 cpm (Cherenkov’s counting) of [^32P]-miR-18a, 1 μM unlabeled miRNA, 20 µM of miR-18a-DC in buffers contained 100 mM KCl, 50 mM Tris-HCl pH 7.0, 1mM DTT, 0.02 mg/mL BSA and MgCl2 at concentration 0, 2, 4, 8 or 15 mM at 37 °C for 48 h. RNA cleavage products were collected and analyzed as described above.
substance,measurement,setting,value
"CTACCTGC–linker 1–[GRLRL]2–linker 2–AAGCACTTTG [miRNA-17-DC, Dual oligonucleotide-peptide conjugate targeted to miR-17: catalytic peptide [LRLRG]2 between two 2-aminoadenine-containing oligodeoxyribonucleotides]",total extent of miRNA cleavage in the presence of RNase H,[1]; RNase H 5 u/mL,44%
same,total extent of miRNA cleavage in the presence of RNase H,[1]; RNase H 100 u/mL,92%
same,total efficiency of cleavage in the complex with DC relative to the miRNA/ON complex,[1]; RNase H at both 5 and 100 u/mL,more than 1.5 fold
same,increase in the rate of cleavage by DC with RNase H compared with DC alone,[1]; after 1 h,up to 10 fold
same,increase in the rate of cleavage by DC with RNase H compared with RNase H alone,[1]; after 1 h,1.5 fold
"TCAACATC–linker 1–[GRLRL]2–linker 2–GATAAGCTA [miRNA-21-DC, Dual oligonucleotide-peptide conjugate targeted to miR-21: catalytic peptide [LRLRG]2 between two 2-aminoadenine-containing oligodeoxyribonucleotides]",half-life time (τ1/2) in 10% FBS,[2],8 ± 0.1 h
"TATCTGC–linker 1–[GRLRL]2–linker 2–ATGCACCTTA [miRNA-18a-DC, Dual oligonucleotide-peptide conjugate targeted to miR-18a: catalytic peptide [LRLRG]2 between two 2-aminoadenine-containing oligodeoxyribonucleotides]",Cleavage,[3]; Mg2+ 0 mM,26.4±4.0%
same,Cleavage,[3]; Mg2+ 2 mM,28.8±3.9%
same,Cleavage,[3]; Mg2+ 4 mM,24.3±2.7%
same,Cleavage,[3]; Mg2+ 8 mM,23.1±3.1%
same,Cleavage,[3]; Mg2+ 15 mM,27.2±4.3%
same,"ribonuclease activity of DC (cleavage), unaffected by addition of Mg2+",[3]; Mg2+ varied from 0 to 15 mM,approximately 26%
"ACCCCTAT–linker 1–[GRLRL]2–linker 2–TTAGCATTAA [miRNA-155-DC, Dual oligonucleotide-peptide conjugate targeted to miR-155: catalytic peptide [LRLRG]2 between two 2-aminoadenine-containing oligodeoxyribonucleotides]",half-life time (τ1/2) in 10% FBS,[2],9.01 ± 0.5 h
